Data as given in patent publication US9617256B2 (priority 2007, dated 2017).
Values after ≈ are worked out from the molar mass of the structure shown. Where two headings read alike, the source gives them in different places.

Key:
[1] = test system: AECO001 (ATCC25922); assay: MIC broth microdilution, AECO001; format: cell-based, E. coli; conditions: Escherichia coli
Description: (§1) Bacterial isolates were cultivated from −70° C. frozen stocks by overnight passages at 35° C. in ambient air on Mueller-Hinton agar (Beckton Dickinson, Franklin Lakes, N.J.). Clinical isolates tested were obtained from various geographically diverse hospitals in the US and abroad (Focus Diagnostics, Herndon, Va. and JMI, North Liberty, Iowa). Quality control strains were from the American Type Culture Collection (ATCC; Rockville, Md.). Additional primary panel strains were generated using standard molecular biology techniques.
(§2) Minimum Inhibitory Concentrations (MICs) were determined by the broth microdilution method in accordance with the Clinical and Laboratory Standards Institute (CLSI) guidelines. In brief, organism suspensions were adjusted to a 0.5 McFarland standard to yield a final inoculum between 3×10^5 and 7×10^5 colony-forming units (CFU)/mL. Drug dilutions and inocula were made in sterile, cation adjusted Mueller-Hinton Broth (Beckton Dickinson). An inoculum volume of 100 μL was added to wells containing 100 μL of broth with 2-fold serial dilutions of drug. All inoculated microdilution trays were incubated in ambient air at 35° C. for 18-24 hours. […] Performance of the assay was monitored by the use of laboratory quality-control strains and levofloxacin, a compound with a defined MIC spectrum, in accordance with CLSI guidelines.
(§3) *AECO001 is ATCC25922, AECO063 is ATCC25922 bearing an acrAB mutation, APAE001 is ATCC27853, APAE006 is a strain of P. aeruginosa in which all efflux pumps are inactivated, APAE006+PMBN indicates MICs with the indicated strain in the presence of 8 micrograms per milliliter of polymyxin B nonapeptide, AABA1060 is a clinical isolate of Acinetobacter baumannii, ASAU001 is a laboratory strain of S. aureus (ATCC29213).

[2] = test system: AECO063 (ATCC25922 bearing an acrAB mutation); assay: microbe, parasite or virus in culture; format: cell-based, E. coli; conditions: Escherichia coli, ATCC25922, read-out: MIC AECO063
Description: as §1, §2, §3

[3] = test system: APAE001 (ATCC27853); assay: MIC broth microdilution, APAE001; format: cell-based, P. aeruginosa; conditions: Pseudomonas aeruginosa, ATCC27853, read-out: MIC APAE001, APAE001 (ATCC27853)
Description: as §1, §2, §3

[4] = test system: APAE006 (strain of P. aeruginosa in which all efflux pumps are inactivated); assay: microbe, parasite or virus in culture; format: cell-based; conditions: Pseudomonas aeruginosa, read-out: MIC APAE006, APAE006, all efflux pumps inactivated
Description: as §1, §2, §3

[5] = test system: APAE006 in the presence of 8 micrograms per milliliter of polymyxin B nonapeptide; format: cell-based, P. aeruginosa; conditions: APAE006 with 8 micrograms per milliliter polymyxin B nonapeptide
Description: as §1, §2, §3

[6] = test system: AABA1060 (clinical isolate of Acinetobacter baumannii); assay: MIC broth microdilution, AABA1060; format: cell-based; conditions: Acinetobacter baumannii, read-out: MIC AABA1060
Description: as §1, §2, §3

[7] = test system: ASAU001 (laboratory strain of S. aureus, ATCC29213); assay: MIC broth microdilution, ASAU001; format: cell-based; conditions: Staphylococcus aureus, ATCC29213, read-out: MIC ASAU001
Description: as §1, §2, §3

[8] = ATCC25922, read-out: MIC AECO001
[9] = ATCC25922, read-out: MIC AECO001 HSA AGP

With CC(C)(N)[C@H](NC(=O)c1ccc(C#CC#Cc2ccc(C(F)(F)F)cc2)cc1)C(=O)NO [Example 82-26] the MIC [1, 8] was < 2 µg/mL, the MIC [1, 9] was 16 to 64 µg/mL (≈ 36.1 to 144 µM) and the MIC [2] was < 2 µg/mL. The MIC [3] was 2 to 16 µg/mL (≈ 4.51 to 36.1 µM), the MIC [4] was 2 to 16 µg/mL (≈ 4.51 to 36.1 µM) and the “MIC APAE006 + PMBN” value [5] was “A (MIC's of 2.0 μg/mL or less = A)”. It also gave an MIC [6] of 2 to 16 µg/mL (≈ 4.51 to 36.1 µM) and an MIC [7] of 2 to 16 µg/mL (≈ 4.51 to 36.1 µM).

For CC(C)(N)[C@H](NC(=O)c1ccc(C#CC#Cc2cccc(F)c2)cc1)C(=O)NO [Example 82-27], the MIC [1, 8] was < 2 µg/mL, the MIC [1, 9] was 2 to 16 µg/mL (≈ 5.08 to 40.7 µM) and the MIC [2] was < 2 µg/mL. For the same compound, the MIC [3] was 2 to 16 µg/mL (≈ 5.08 to 40.7 µM), the MIC [4] was < 2 µg/mL and the “MIC APAE006 + PMBN” value [5] was “A (MIC's of 2.0 μg/mL or less = A)”. For the same compound, the MIC [6] was 2 to 16 µg/mL (≈ 5.08 to 40.7 µM) and the MIC [7] was 16 to 64 µg/mL (≈ 40.7 to 163 µM).

With CC(C)(N)[C@H](NC(=O)c1ccc(C#CC#Cc2ccc(F)cc2)cc1)C(=O)NO [Example 82-28] the MIC [1, 8] was < 2 µg/mL, the MIC [1, 9] was 2 to 16 µg/mL (≈ 5.08 to 40.7 µM) and the MIC [2] was < 2 µg/mL. For the same compound, the MIC [3] was 2 to 16 µg/mL (≈ 5.08 to 40.7 µM), the MIC [4] was < 2 µg/mL and the “MIC APAE006 + PMBN” value [5] was “A (MIC's of 2.0 μg/mL or less = A)”. For the same compound, the MIC [6] was < 2 µg/mL and the MIC [7] was 2 to 16 µg/mL (≈ 5.08 to 40.7 µM).

With CC(C)(N)[C@H](NC(=O)c1ccc(C#CC#Cc2ccc(O)cc2)cc1)C(=O)NO [Example 83-1, N—((S)-2-Amino-1-hydroxycarbamoyl-2-methyl-propyl)-4-[4-(4-hydroxy-phenyl)-buta-1,3-diynyl]-benzamide] the MIC [1, 8] was < 2 µg/mL, the MIC [1, 9] was 2 to 16 µg/mL (≈ 5.11 to 40.9 µM) and the MIC [2] was < 2 µg/mL. The MIC [3] was < 2 µg/mL, the MIC [4] was < 2 µg/mL and the “MIC APAE006 + PMBN” value [5] was “A (MIC's of 2.0 μg/mL or less = A)”. For the same compound, the MIC [6] was < 2 µg/mL and the MIC [7] was 16 to 64 µg/mL (≈ 40.9 to 164 µM).

In the case of C[C@@H](N)[C@H](NC(=O)c1ccc(C#CC#Cc2ccc(O)cc2)cc1)C(=O)NO [Example 83-2], the MIC [1, 8] is reported as < 2 µg/mL, the MIC [1, 9] is reported as 16 to 64 µg/mL (≈ 42.4 to 170 µM) and the MIC [2] is reported as < 2 µg/mL. The MIC [3] was < 2 µg/mL, the MIC [4] was < 2 µg/mL and the “MIC APAE006 + PMBN” value [5] was “A (MIC's of 2.0 μg/mL or less = A)”. For the same compound, the MIC [6] was 2 to 16 µg/mL (≈ 5.3 to 42.4 µM) and the MIC [7] was 16 to 64 µg/mL (≈ 42.4 to 170 µM).

C[C@@H](N)[C@H](NC(=O)c1ccc(C#CC#Cc2ccc(OC3CC3)cc2)cc1)C(=O)NO [Example 84-1, N-((1S,2R)-2-Amino-1-hydroxycarbamoyl-propyl)-4-[4-(4-cyclopropoxy-phenyl)-buta-1,3-diynyl]-benzamide] was tested, and the MIC [1, 8] was < 2 µg/mL, the MIC [1, 9] was 2 to 16 µg/mL (≈ 4.79 to 38.3 µM) and the MIC [2] was < 2 µg/mL. For the same compound, the MIC [3] was 16 to 64 µg/mL (≈ 38.3 to 153 µM), the MIC [4] was 2 to 16 µg/mL (≈ 4.79 to 38.3 µM) and the “MIC APAE006 + PMBN” value [5] was “A (MIC's of 2.0 μg/mL or less = A)”. For the same compound, the MIC [6] was 16 to 64 µg/mL (≈ 38.3 to 153 µM) and the MIC [7] was 16 to 64 µg/mL (≈ 38.3 to 153 µM).

For C[C@@H](N)[C@H](NC(=O)c1ccc(C#CC#Cc2ccc(CNCC(F)F)cc2)cc1)C(=O)NO [Example 86-1, N-((1S,2R)-2-Amino-1-hydroxycarbamoyl-propyl)-4-(4-{4-[(2,2-difluoro-ethylamino)-methyl]-phenyl}-buta-1,3-diynyl)-benzamide], the MIC [1, 8] was < 2 µg/mL, the MIC [1, 9] was 2 to 16 µg/mL (≈ 4.4 to 35.2 µM) and the MIC [2] was < 2 µg/mL. The MIC [3] was < 2 µg/mL, the MIC [4] was < 2 µg/mL and the “MIC APAE006 + PMBN” value [5] was “A (MIC's of 2.0 μg/mL or less = A)”. For the same compound, the MIC [6] was 2 to 16 µg/mL (≈ 4.4 to 35.2 µM) and the MIC [7] was 16 to 64 µg/mL (≈ 35.2 to 141 µM).

For CC(C)(O)[C@H](NC(=O)c1ccc(C#CC#Cc2ccc(CN3CCOCC3)cc2)cc1)C(=O)NO [Example 86-4], the MIC [1, 8] was < 2 µg/mL, the MIC [1, 9] was 2 to 16 µg/mL (≈ 4.21 to 33.6 µM) and the MIC [2] was < 2 µg/mL. For the same compound, the MIC [3] was 2 to 16 µg/mL (≈ 4.21 to 33.6 µM), the MIC [4] was < 2 µg/mL and the “MIC APAE006 + PMBN” value [5] was “A (MIC's of 2.0 μg/mL or less = A)”. It also gave an MIC [6] of 2 to 16 µg/mL (≈ 4.21 to 33.6 µM) and an MIC [7] of 16 to 64 µg/mL (≈ 33.6 to 135 µM).

With C[C@@H](N)[C@H](NC(=O)c1ccc(C#CC#Cc2ccc(CNCCF)cc2)cc1)C(=O)NO [Example 86-5] the MIC [1, 8] was < 2 µg/mL, the MIC [1, 9] was 16 to 64 µg/mL (≈ 36.7 to 147 µM) and the MIC [2] was < 2 µg/mL. For the same compound, the MIC [3] was < 2 µg/mL, the MIC [4] was < 2 µg/mL and the “MIC APAE006 + PMBN” value [5] was “A (MIC's of 2.0 μg/mL or less = A)”. It also gave an MIC [6] of 2 to 16 µg/mL (≈ 4.58 to 36.7 µM) and an MIC [7] of 16 to 64 µg/mL (≈ 36.7 to 147 µM).

With C[C@@H](N)[C@H](NC(=O)c1ccc(C#CC#Cc2ccc(CN3CCS(=O)(=O)CC3)cc2)cc1)C(=O)NO [Example 86-6] the MIC [1, 8] was < 2 µg/mL, the MIC [1, 9] was 2 to 16 µg/mL (≈ 3.93 to 31.5 µM) and the MIC [2] was < 2 µg/mL. The MIC [3] was 2 to 16 µg/mL (≈ 3.93 to 31.5 µM), the MIC [4] was < 2 µg/mL and the “MIC APAE006 + PMBN” value [5] was “A (MIC's of 2.0 μg/mL or less = A)”. The MIC [6] was 2 to 16 µg/mL (≈ 3.93 to 31.5 µM) and the MIC [7] was 16 to 64 µg/mL (≈ 31.5 to 126 µM).
